Article PMC6556873, “Rapid Covalent-Probe Discovery by Electrophile-Fragment Screening” (Journal of the American Chemical Society, 2019)
Like-named read-outs stand apart in the source and are kept apart here.

Key:
NNMT (hNNMT) = target: T1, NNMT (hNNMT) (Homo sapiens, UniProt P40261); parameters: Intact protein LC/MS covalent labelling, fragments in pools of five, 200 uM each, 4 °C; conditions: 24 h, 4 °C, pool of five; 200 µM; covalent
T1 construct: wild type, N-terminal His6 tag kept (no cleavage described), E. coli, construct 31248 Da
T1 sequence (P40261 1-264): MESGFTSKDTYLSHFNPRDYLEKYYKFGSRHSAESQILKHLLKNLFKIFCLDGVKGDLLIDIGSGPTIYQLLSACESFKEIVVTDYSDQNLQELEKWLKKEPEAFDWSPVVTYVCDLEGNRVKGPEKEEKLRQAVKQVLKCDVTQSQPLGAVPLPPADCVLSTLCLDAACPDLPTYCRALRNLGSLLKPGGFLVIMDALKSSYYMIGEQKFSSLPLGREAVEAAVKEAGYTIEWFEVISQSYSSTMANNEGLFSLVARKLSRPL

PCAF = target: T2, PCAF (Homo sapiens, UniProt Q92831); parameters: Intact protein LC/MS covalent labelling, fragments in pools of five, 200 uM each, 4 °C; conditions: 24 h, 4 °C, pool of five; 200 µM; covalent
T2 construct: gene KAT2B

NUDT7 = target: T3, NUDT7 (Homo sapiens, UniProt P0C024); parameters: Intact protein LC/MS covalent labelling, fragments in pools of five, 200 uM each, 4 °C; conditions: 24 h, 4 °C, pool of five; 200 µM; covalent
T3 construct: residues 14-235, E. coli, pNIC28-Bsa4, N-terminal His6 tag removed by TEV, construct 26672 Da

OTUB2 (OTUB2A) = target: T4, OTUB2 (OTUB2A) (Homo sapiens, UniProt Q96DC9); parameters: Intact protein LC/MS covalent labelling, fragments in pools of five, 200 uM each, 4 °C; conditions: 24 h, 4 °C, pool of five; 200 µM; covalent
T4 construct: full length residues 1-234, E. coli BL21(DE3)-R3, His tag removed by TEV, construct 27312 Da
T4 sequence (Q96DC9 1-234): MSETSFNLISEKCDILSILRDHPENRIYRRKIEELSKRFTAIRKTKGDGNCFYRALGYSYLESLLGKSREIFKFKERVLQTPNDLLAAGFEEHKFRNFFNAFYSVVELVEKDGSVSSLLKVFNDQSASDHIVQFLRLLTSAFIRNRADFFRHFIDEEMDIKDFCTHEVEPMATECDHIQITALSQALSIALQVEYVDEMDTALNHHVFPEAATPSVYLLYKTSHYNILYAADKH

BSA = target: T5, BSA (Bos taurus, UniProt P02769); parameters: Intact protein LC/MS covalent labelling, fragments in pools of five, 200 uM each, 4 °C; conditions: 24 h, 4 °C, pool of five; 200 µM; covalent
T5 construct: gene ALB

in vitro [1] = experiment: in vitro; parameters: species or system HB2, HEK293; conditions: human, ccd841 cells
in vitro [2] = experiment: in vitro; parameters: species or system CCD841, HEK293; conditions: human, hb2 cells, read-out: HB-2 Cells Viability (%)
in vitro [3] = experiment: in vitro; parameters: species or system HB2, CCD841; conditions: human, hek293 cells

T2 sequence (Q92831 whole entry, the tested form may be a part): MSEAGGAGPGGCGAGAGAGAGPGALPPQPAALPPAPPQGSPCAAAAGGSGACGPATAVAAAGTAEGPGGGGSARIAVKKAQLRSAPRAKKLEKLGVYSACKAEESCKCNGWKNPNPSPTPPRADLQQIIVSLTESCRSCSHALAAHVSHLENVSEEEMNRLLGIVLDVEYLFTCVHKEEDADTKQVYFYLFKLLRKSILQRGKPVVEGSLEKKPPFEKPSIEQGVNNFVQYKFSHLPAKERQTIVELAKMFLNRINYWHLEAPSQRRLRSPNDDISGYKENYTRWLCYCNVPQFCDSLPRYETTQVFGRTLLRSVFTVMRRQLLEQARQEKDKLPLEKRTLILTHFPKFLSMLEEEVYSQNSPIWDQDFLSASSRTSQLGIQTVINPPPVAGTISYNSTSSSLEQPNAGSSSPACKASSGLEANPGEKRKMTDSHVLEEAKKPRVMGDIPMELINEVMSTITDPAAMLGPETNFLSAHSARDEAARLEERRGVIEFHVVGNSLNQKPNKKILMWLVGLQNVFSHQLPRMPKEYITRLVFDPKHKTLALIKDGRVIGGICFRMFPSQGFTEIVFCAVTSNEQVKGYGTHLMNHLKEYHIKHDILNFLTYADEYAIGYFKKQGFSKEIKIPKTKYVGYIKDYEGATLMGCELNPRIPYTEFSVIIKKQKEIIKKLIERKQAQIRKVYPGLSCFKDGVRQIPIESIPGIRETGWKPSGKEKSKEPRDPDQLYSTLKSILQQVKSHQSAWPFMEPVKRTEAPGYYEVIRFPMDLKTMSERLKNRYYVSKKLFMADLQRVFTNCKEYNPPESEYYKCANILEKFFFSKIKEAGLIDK
T3 sequence (P0C024 14-235): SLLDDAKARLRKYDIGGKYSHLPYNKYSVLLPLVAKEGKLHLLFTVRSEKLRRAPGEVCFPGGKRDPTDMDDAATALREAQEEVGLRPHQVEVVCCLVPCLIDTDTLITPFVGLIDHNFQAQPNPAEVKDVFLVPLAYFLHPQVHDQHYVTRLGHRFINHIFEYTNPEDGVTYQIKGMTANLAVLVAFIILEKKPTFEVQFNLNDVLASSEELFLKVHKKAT
T5 sequence (P02769 whole entry, the tested form may be a part): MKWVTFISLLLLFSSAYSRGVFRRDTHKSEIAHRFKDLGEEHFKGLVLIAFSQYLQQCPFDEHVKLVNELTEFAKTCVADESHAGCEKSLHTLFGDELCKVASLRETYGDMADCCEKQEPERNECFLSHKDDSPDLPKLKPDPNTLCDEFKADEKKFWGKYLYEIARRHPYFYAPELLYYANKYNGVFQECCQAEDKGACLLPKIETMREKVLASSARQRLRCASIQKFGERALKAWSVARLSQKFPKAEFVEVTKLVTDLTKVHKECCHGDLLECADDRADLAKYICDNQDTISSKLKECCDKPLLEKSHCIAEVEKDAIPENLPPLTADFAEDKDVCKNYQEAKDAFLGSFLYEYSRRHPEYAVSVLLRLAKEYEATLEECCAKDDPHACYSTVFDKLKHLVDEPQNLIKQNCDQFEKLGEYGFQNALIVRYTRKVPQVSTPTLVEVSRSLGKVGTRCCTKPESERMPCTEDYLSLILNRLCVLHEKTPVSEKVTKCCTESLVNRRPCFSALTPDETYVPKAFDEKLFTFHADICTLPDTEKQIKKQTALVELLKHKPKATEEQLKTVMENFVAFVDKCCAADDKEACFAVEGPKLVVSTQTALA

Structure (SMILES)	NNMT (NNMT (hNNMT))	PCAF (PCAF)	NUDT7 (NUDT7)	OTUB2 (OTUB2 (OTUB2A))	BSA (BSA)	viability at 48 h, 10 µM (in vitro [1]) [%]	viability at 48 h, 10 µM (in vitro [2]) [%]	viability at 48 h, 10 µM (in vitro [3]) [%]
C=CC(=O)N1CCCN(C(=O)c2cc(Cl)cn2C)CC1 [PCM-0103003]	0	0	0	0	0	101	105	96.7
Cl.O=C(CCl)N1CCN(Cc2ccco2)CC1 [PCM-0103006]	0	0	0	0	0	85	88.6	65.7
CC(C)N(C(=O)CCl)C(C)C [PCM-0103023]	0	0	0	0	0	106	102	110
Cl.O=C(CCl)Nc1ccc(Cl)cn1 [PCM-0103036]	0.19	0	0	0	0.19	96.4	98.5	113
Cl.O=C(CCl)NC1CCN(C2CC2)CC1 [PCM-0103055]	0.23	0	0	0	0	83	98.2	92.7
CC1(C)CCCN1C(=O)CCl [PCM-0103060]	0	0	0	0	0	92.4	104	74.5
O=C(CCl)N(C1CCCC1)C1CC1 [PCM-0103064]	0	0	0	0	0	87.8	102	74
O=C(CCl)NCC1CCC1 [PCM-0103065]	0	0	0	0	0	108	104	104

The next lines start with results.

NNMT (NNMT (hNNMT))	PCAF (PCAF)	NUDT7 (NUDT7)	OTUB2 (OTUB2 (OTUB2A))	BSA (BSA)	Structure (SMILES)	viability at 48 h, 10 µM (in vitro [1]) [%]	viability at 48 h, 10 µM (in vitro [2]) [%]	viability at 48 h, 10 µM (in vitro [3]) [%]
0	0	0	1	0	CCc1sc(C(=O)NNC(=O)CCl)cc1C [PCM-0103009]	68.3	70.4	73.2
0.13	0	0	0.09	0	CCOC(=O)C1CCCN(C(=O)CCl)C1 (stereo not shown) [PCM-0103015]	98.8	104	98.8
0	0	0	0.16	0	CS(=O)(=O)c1ccc(F)c(NC(=O)CCl)c1 [PCM-0103018]	53.6	57.6	24.3
0.23	0	0	0.14	0.18	Cc1ccc(NC(=O)CCl)c(F)c1 [PCM-0103028]	58.4	42.3	29
0.58	0	0.15	0.34	0	CC(NC(=O)CCl)c1ccc(F)cc1F (stereo not shown) [PCM-0103035]	78.2	77.6	66.4
0	0	0	0.36	0	CC(C)(C)n1ncc2c1CCCC2NC(=O)CCl.Cl (stereo not shown) [PCM-0103046]	90.9	81.5	89.3
0	0	0	0.43	0	O=C(CCl)NCc1cccc(F)c1 [PCM-0103047]	69.7	83.7	88.1
0.2	0	0	0.87	0	COC(=O)c1cccc(NC(=O)CCl)c1 [PCM-0103048]	34.7	17.7	5.1
0	0	0.13	0.84	0	O=C(CCl)NCc1cc(Br)cs1 [PCM-0103050]	75.7	87	53.1
0	0	0	0.44	0	Cc1cc(NC(=O)CCl)n(-c2ccccc2F)n1 [PCM-0103066]	65.3	64	36
1	0	1	0.16	0	COc1cccc2sc(NC(=O)CCl)nc12.Cl [PCM-0103067]	48.9	32.2	47.6
0	0	0	0	0	O=C(CCl)Nc1cccc(C(=O)N2CCSCC2)c1 [PCM-0103072]	55.2	34.5	7.8
